{
  "source": "patent US4323550A",
  "about": "“Halogenohydrates of N,N-disubstituted derivatives of piperazine having anticariogenic properties” (priority 1976, dated 1982)",
  "key": {"in vivo": {"assay": "in vivo", "assay_type": "in vivo", "conditions": "in vivo; rat, oral; Lichfield and Wilcoxon", "description": "(§1) By way of example there are described below the comparative tests made on difluorohydrate of N,N'-di(hydroxyethyl) piperazine and on fluorohydrate of hexadecylamine or \"ELMEX 242\".\n(§2) The acute toxidity was studies in rats and in mice.\n(§3) The animals came from a homogeneous breed. The mice weighed between 19 and 21 g and the rats weighed from 120 to 140 g. The mice were grouped in lots of 10 and the rats in lots of 8.\n(§4) The administrations took place orally at a volume of 0.5 ml per 20 g of mouse and 1 ml per 100 g of rat. The LD50 was determined by the method of Lichfield and Wilcoxon.\n(§5) As regards the difluorohydrate of N,N'-di(hydroxyethyl) piperazine, the administered solution was prepared by diluting the mother solution to 65.4%, the dilutions being made after having weighed this solution. The administered dose is expressed by weight, taking account of the indicated strength of this solution.\n(§6) For the solid \"ELMEX 242\" an aqueous suspension was prepared with the aid of solubilizing agents (e.g. Tween-polyoxyethylene sorbitan monolaurate). A very thick suspension is then obtained which tends to foam heavily, is difficult to get into the esophageal sound, and the determination of its volume is rendered difficult by the foam.\n(§7) The results obtained with the \"ELMEX\" are therefore rather approximate."}, "rats": {"system": "rats", "assay": "in vivo", "assay_type": "in vivo", "conditions": "rat; for Deaths: oral", "description": "as §1, §2, §3, §4, §5, §6, §7"}, "[1]": {"assay": "pH of the difluorohydrate solution", "assay_type": "physicochemical", "conditions": "solution titering 1.23% fluorine", "description": "(§8) The radioactive solutions are obtained by dissolving 69 mg of the difluorohydrate and 81.3 mg of NaF, respectively, in 1 and 3 ml of fluorine 18 solution without entrainer. Thus solutions titering 1.23% fluorine are obtained.\n(§9) As the difluorohydrate solution is already at pH=3.5, it is sufficient to acidify the NaF solution by addition of about 0.2 ml hydrochloric acid 6 M, to 3 ml of the radioactive solution."}, "[2]": {"assay": "Penetration of fluorine 18 into dental enamel after topical application (Muhlemann biopsy)", "parameters": "species or system children", "excerpt": "The anticariogenic activity of the difluorohydrate of N,N'-di(hydroxy-ethyl) piperazine has been evidenced by comparison with sodium fluoride known for its cariopreventive topical properties. A comparative study has been made of the penetration into the dental enamel of the fluorine contained in the molecule according to the invention and of the fluorine contained in sodium fluoride.\nFor this comparison the difluorohydrate of N,N'-di(hydroxy-ethyl) piperazine was marked at the fluorine 18, by isotopic exchange by dissolving some crystals of the product according to the invention in a solution of pure fluorine 18 without entrainer. The same was done for the sodium fluoride.\nThe study of the penetration of the fluorine into the enamel was made on several teeth to compare the behavior of the product of the invention and of sodium fluoride in supplying fluorine and in the penetration of the latter into the deepest layers of the dental tissue.\nThe tests were performed on 30 premolar teeth taken from normal children 9 to 11 years old. Eighteen teeth were treated by topical application of the radioactive solutions of the difluoro-hydrate of N,N'-di(hydroxy-ethyl) piperazine or of NaF adjusted to pH=3.5; the other 12 were treated with the same solutions adjusted to a pH of 7.4.\nas §8, §9\nIn this case, the difluorohydrate's nature of organic salt can be preserved and its solution neutralized at 1.23% of fluorine in 1 ml by addition of about 110 mg of its N,N'-di(hydroxyethyl) piperazine base.\nFor the experimentation one determines two enamel plagues on each tooth. For this, one applies on the crowns, separated from each other by 2 or 3 mm, two round disks of a diameter of 3 mm cut out from adhesive tape. The crown is then covered with a layer of impermeable varnish. When the varnish is dry, the patches of adhesive tape are removed, thus bearing the two zones of enamel to be treated.\nThe spot application of the fluorinated solution is done by means of a sponge imbibed with 0.5 ml of the solution. This sponge is inserted in a polyethylene tube to limit the surface of contact between tooth and sponge to the circumference of the enamel zone treated.\nThe sampling of the enamel is done by Muhlemann's biopsy technique: A patch of blotting paper impregnated with 4 microliters of perchloric acid 2 M is applied on the trated enamel for 30 seconds. The enamel is dried with a second patch of blotting paper. It is on these patches which contain the dissolved enamel that we measure the radioactivity.\nThere are given in Table I all the results relating to the acid treatment, in Table II all the results relating to the treatment at neutral pH. The fluorine values are those obtained by measuring the radioactivity of the samples.\nThe columns […] and N2 represent the mass of fluorine measured on the second biopsy.\nWe have marked R1 and R1 and R2 the ratios G1 /G2 and N1 /N2, and R3 the ratio. [formula] R1 and R2 permitting to compare the quantities of fluorine at the same depth. R3 permits comparing the accumulation of fluorine in the tooth."}, "[3]": {"assay": "Acute oral toxicity in mice", "assay_type": "in vivo", "conditions": "in vivo, mouse, read-out: dose up to which no symptom occurs", "description": "as §1, §2, §3, §4, §5, §6, §7"}, "[4]": {"assay": "Ionizable fluorine content", "assay_type": "physicochemical"}, "Hygroscopicity": {"assay": "Hygroscopicity", "assay_type": "physicochemical", "conditions": "crystals"}},
  "data": [
    {"smiles": "OCCN1CCN(CCO)CC1", "note": "[DIFLUOROHYDRATE OF N,N'-DI(HYDROXY-ETHYL) PIPERAZINE]", "values": [
      {"measurement": "LD50 at 240 h", "setting": "in vivo", "result": 790, "unit": "mg/kg"},
      {"measurement": "symptoms / behavior", "setting": "rats; in vivo, po", "result": "Some diarrhea and some trembling appear."},
      {"measurement": "Deaths", "setting": "rats; 250 mg/kg, D + 1, 8 per lot", "result": 0},
      {"measurement": "Deaths", "setting": "rats; 250 mg/kg, D + 2, 8 per lot", "result": 0},
      {"measurement": "Deaths", "setting": "rats; 250 mg/kg, D + 5, 8 per lot", "result": 0},
      {"measurement": "Deaths", "setting": "rats; 250 mg/kg, D + 10, 8 per lot", "result": 0},
      {"measurement": "Deaths", "setting": "rats; 500 mg/kg, D + 1, 8 per lot", "result": 0},
      {"measurement": "Deaths", "setting": "rats; 500 mg/kg, D + 2, 8 per lot", "result": 0},
      {"measurement": "Deaths", "setting": "rats; 500 mg/kg, D + 5, 8 per lot", "result": 0},
      {"measurement": "Deaths", "setting": "rats; 500 mg/kg, D + 10, 8 per lot", "result": 0},
      {"measurement": "Deaths", "setting": "rats; 750 mg/kg, D + 1, 8 per lot", "result": 1},
      {"measurement": "Deaths", "setting": "rats; 750 mg/kg, D + 2, 8 per lot", "result": 3},
      {"measurement": "Deaths", "setting": "rats; 750 mg/kg, D + 5, 8 per lot", "result": 4},
      {"measurement": "Deaths", "setting": "rats; 750 mg/kg, D + 10, 8 per lot", "result": 4},
      {"measurement": "Deaths", "setting": "rats; 1000 mg/kg, D + 1, 8 per lot", "result": 2},
      {"measurement": "Deaths", "setting": "rats; 1000 mg/kg, D + 2, 8 per lot", "result": 5},
      {"measurement": "Deaths", "setting": "rats; 1000 mg/kg, D + 5, 8 per lot", "result": 6},
      {"measurement": "Deaths", "setting": "rats; 1000 mg/kg, D + 10, 8 per lot", "result": 6},
      {"measurement": "Deaths", "setting": "rats; 1250 mg/kg, D + 1, 8 per lot", "result": 5},
      {"measurement": "Deaths", "setting": "rats; 1250 mg/kg, D + 2, 8 per lot", "result": 7},
      {"measurement": "Deaths", "setting": "rats; 1250 mg/kg, D + 5, 8 per lot", "result": 8},
      {"measurement": "Deaths", "setting": "rats; 1250 mg/kg, D + 10, 8 per lot", "result": 8},
      {"measurement": "pH of the solution", "setting": "[1]", "result": 3.5},
      {"measurement": "cases with R1 less than 1", "setting": "[2]; acid medium, 18 teeth", "result": 16, "unit": "cases"},
      {"measurement": "cases with R3 between 1 and 1.7", "setting": "[2]; acid medium, 18 teeth", "result": 8, "unit": "cases"},
      {"measurement": "cases with R3 greater than 1.7", "setting": "[2]; acid medium, 18 teeth", "result": 4, "unit": "cases"},
      {"measurement": "cases with R3 less than 1", "setting": "[2]; acid medium, 18 teeth", "result": 5, "unit": "cases"},
      {"measurement": "mean value of R3", "setting": "[2]; acid medium, 18 teeth, standard deviation 0.6", "result": 1.5},
      {"measurement": "cases with R1 greater than 1", "setting": "[2]; neutral medium, 12 teeth", "result": 10, "unit": "cases"},
      {"measurement": "cases with R3 between 1 and 1.7", "setting": "[2]; neutral medium, 12 teeth", "result": 7, "unit": "cases"},
      {"measurement": "cases with R3 greater than 1.7", "setting": "[2]; neutral medium, 12 teeth", "result": 2, "unit": "cases"},
      {"measurement": "cases with R3 less than 1", "setting": "[2]; neutral medium, 12 teeth", "result": 3, "unit": "cases"},
      {"measurement": "mean value of R1", "setting": "[2]; neutral medium, 12 teeth", "result": 3.0},
      {"measurement": "average of R3", "setting": "[2]; neutral medium, 12 teeth, standard deviation 0.4", "result": 1.2},
      {"measurement": "average fluorine sampled in the two biopsies, acid pH compared with neutral pH", "setting": "[2]; pH 3.5 versus pH 7.4", "result": 2.6},
      {"measurement": "anticariogenic action compared with sodium fluoride", "setting": "[2]; same pH conditions", "result": "effects comparable to those of sodium fluoride"},
      {"measurement": "NOAEL at 240 h", "setting": "[3]", "result": "≥ 400", "unit": "mg/kg"},
      {"measurement": "ionizable fluorine content", "setting": "[4]", "result": 15.18, "unit": "%"},
      {"measurement": "hygroscopicity", "setting": "Hygroscopicity", "result": "very hygroscopic"},
      {"measurement": "hygroscopicity", "setting": "Hygroscopicity; listed as difluorohydrate", "result": "particularly hygroscopic"}
    ]}
  ]
}
